Laboratory results from patent US20100291236A1, “OSMIUM COMPOUNDS” (THE UNIVERSITY OF WARWICK, priority 2006, published 2010).
Entries after “also recorded” stand apart in the source; their conditions may differ.

Columns and labels:
[1] = Aqueous solubility
[2] = system: A549 human lung and A2780 human ovarian cancer cell lines; test: Cytotoxicity in A549 and A2780 cell lines, result not split by cell line; format: cell-based
Description: (§1) Experimental: Cytotoxicity Towards A2780 and A549 Human Cancer Cells. After plating, human ovarian A2780 cancer cells were treated with Os^II complexes on day 3, and human lung A549 cancer cells on day 2, at concentrations ranging from 2 μM to 50 μM. Solutions of the Os^II complexes were made up in 0.125% DMSO to assist dissolution. Cells were exposed to the complexes for 24 h, washed, supplied with fresh medium, allowed to grow for three doubling times (72 h), and then the protein content measured (proportional to cell survival) using the sulforhodamine B (SRB) assay.
(§2) Cancer Cell Cytotoxicity. After plating, human ovarian A2780 cancer cells were treated with OsII complexes on day 3, and human lung A549 cancer cells on day 2, at concentrations ranging from 0.1 μM to 100 μM. Solutions of the OsII complexes were made up in 0.125% DMSO to assist dissolution. Cells were exposed to the complexes for 24 h, washed, supplied with fresh medium, allowed to grow for three doubling times (72 h), and then the protein content measured (proportional to cell survival) using the sulforhodamine B (SRB) assay.10

[3] = extreme conditions of heating, sonicating, exposure to air and extreme sunlight
Description: Samples are prepared for testing by initially dissolving in 5% DMSO and subsequently diluting down.

[4] = system: human lung A549 cancer cells; test: Cytotoxicity towards A549 cells, sulforhodamine B (SRB) assay; format: cell-based; settings: Table 7; 24 h exposure, 72 h growth, 2-50 μM; read-out: IC50/μM A549
Description: as §1, §2

[5] = Acidity (pKa / pKa*) of coordinated water, 1H NMR pH* titration; settings: aqua adduct
Source text: pKa* calculations. […] The chemical shifts of the arene ring protons were plotted against pH*. The pH* titration curves were fitted to the Henderson-Hasselbalch equation, with the assumption that the observed chemical shifts are weighted averages according to the populations of the protonated and deprotonated species.

[6] = system: human ovarian A2780 cancer cells; settings: Peacock et al, J. Am. Chem. Soc. 2006; said to be erroneous; cited from earlier work
[7] = Stability in isotonic saline solutions; format: physicochemical; settings: after 16 days of storage in the dark
Description: Stability tests on AFAP42, 64, 62, 05, 51 and 65 in isotonic saline solutions were also performed.

[8] = system: human ovarian A2780 cancer cells; test: Cytotoxicity towards A2780 cells, sulforhodamine B (SRB) assay; format: cell-based; settings: Table 7; 24 h exposure, 72 h growth, 2-50 μM; read-out: IC50/μM A2780
Description: as §1, §2

[9] = system: A2780cisR (with acquired cisplatin resistance); settings: MTT, 72 hours exposure, 0 to 128 μM
Description: All experiments were made in quadruplicate.
All experiments were performed in quadruplicate.

[10] = Hydrolysis (aquation) kinetics followed by 1H NMR; format: physicochemical; settings: osmium complex versus equivalent ruthenium complex
Description: Hydrolysis. […] The rate of hydrolysis was determined by fitting plots of concentrations (determined by ^1H NMR peak integrals) versus time to a pseudo first-order equation using ORIGIN version 5.0 (Microcal Software Ltd.).

SMILES: Cc1ccc(C(C)C)cc1.Cc1ccc2c(c1)[S][Os-]([Cl])[S]2.[Na+] (centres unmarked) [AFAP40, [(η^6-p-cym)Os(S2C7H6)Cl]Na]
- Aqueous solubility [1]: very poor
- Cytotoxicity, A549 and A2780 [2]: showed activity; also recorded: Shows cytotoxicity

SMILES: F[B-](F)(F)F.[Cl][Os-]1[NH2+]CC[NH2+]1.c1ccc(-c2ccccc2)cc1 [AFAP51, [(η^6-bip)Os(en)Cl]BF4]
- Stability of solutions in DMSO-d6 [3]: can decompose
- IC50 [4]: 10 µM
- pKa of water coordinated on hydrolysis (aqua adduct of complex) [5]: 6.34
- Activity toward A2780 cells as previously reported [6]: inactive
- Cytotoxicity, A549 and A2780 [2]: does show cytotoxicity
- Stability of isotonic saline solutions [7]: stable
- IC50 [8]: 7.6 µM

SMILES: [Cl][Os-]1[NH2+]CC[NH2+]1.c1ccc(-c2ccccc2)cc1 [[(η^6-bip)Os(en)Cl]^+]
- Activity in cisplatin resistant A2780cisR compared with A2780 [9]: even greater activity in the cisplatin resistant cell line
- Hydrolysis slower than the equivalent ruthenium complex [10]: 40 times
